{
  "source": "patent US11229618B2",
  "about": "(Amarin Pharmaceuticals Ireland Limited, priority 2012, dated 2022)",
  "experiment": "Cross-study analysis of trough EPA concentrations in plasma and RBCs (Phase 1 PK, MARINE, ANCHOR)",
  "assay_type": "in vivo, human",
  "description": "The objective of this Example is to examine the effects of high-purity ethyl eicosapentaenoate (“IPE”) on EPA concentrations in plasma and RBCs in response to dose and the relationship to triglyceride (“TG”) lowering across 3 clinical studies.\nMARINE and ANCHOR were 12-week, phase 3, double-blind studies that randomized patients to IPE 4 g/day, 2 g/day, or placebo. MARINE randomized 229 patients with TG≥500 and ≤2000 mg/dL while ANCHOR randomized 702 high-risk patients with TG≥200 and ≤500 mg/dL despite LDL-C control while on statin therapy. IPE 4 g/day and 2 g/day were also investigated in 48 healthy subjects for 4 weeks in a phase 1 pharmacokinetic (“PK”) study. […]\nIn the MARINE and ANCHOR studies, the trough EPA concentrations were measured after 12 weeks of dosing with placebo, 2 g/day or 4 g/day IPE\nIn the Phase 1 PK study, the trough EPA concentrations were measured after 28 days of dosing with 2 or 4 g/day IPE (there was no placebo group; a value of zero is used in plots as a point of reference)\nEPA concentrations were measured with a validated LC-MS/MS method in plasma and in RBCs in all 3 studies […]\nQuantitation utilized linolenic acid as an internal standard and EPA as the standard for the calibration curve; for total plasma EPA and total RBC EPA, the lower limits of quantitation were 10 μg/mL and 5 μg/mL, respectively",
  "data": [
    {"smiles": "CC/C=C\\C/C=C\\C/C=C\\C/C=C\\C/C=C\\CCCC(=O)OCC", "note": "[IPE, all-cis eicosa-5,8,11,14,17-pentaenoic acid ethyl ester]", "values": [
      {"measurement": "dose dependence of plasma and RBC EPA levels", "setting": "2 and 4 g/day groups, all 3 studies", "value": "linear with dose"},
      {"measurement": "effect of demographic factors, baseline TG levels and concomitant medications on EPA concentrations in plasma and RBCs", "setting": "MARINE and ANCHOR", "value": "did not affect the increase in EPA concentrations"}
    ]}
  ]
}
